The record followed here is US5882851A, “Cytochrome P-450 monooxygenases” (Novartis Finance Corporation, priority 1993, dated 1999).

The target in series [1] is T1, P-450TYR expressed in E. coli (Sorghum bicolor, UniProt Q43135).
T1 construct: in which the 35 N-terminal amino acids are replaced by the nine N-terminal amino acids from bovine 17α hydroxylase; nine N-terminal amino acids from bovine 17alpha-hydroxylase (replace the 35 N-terminal residues) (N); made in house; host or cells: E. coli JM109, vector pSP19g10L
T1 sequence (Q43135 other isoform, or with tags, fused parts or gaps): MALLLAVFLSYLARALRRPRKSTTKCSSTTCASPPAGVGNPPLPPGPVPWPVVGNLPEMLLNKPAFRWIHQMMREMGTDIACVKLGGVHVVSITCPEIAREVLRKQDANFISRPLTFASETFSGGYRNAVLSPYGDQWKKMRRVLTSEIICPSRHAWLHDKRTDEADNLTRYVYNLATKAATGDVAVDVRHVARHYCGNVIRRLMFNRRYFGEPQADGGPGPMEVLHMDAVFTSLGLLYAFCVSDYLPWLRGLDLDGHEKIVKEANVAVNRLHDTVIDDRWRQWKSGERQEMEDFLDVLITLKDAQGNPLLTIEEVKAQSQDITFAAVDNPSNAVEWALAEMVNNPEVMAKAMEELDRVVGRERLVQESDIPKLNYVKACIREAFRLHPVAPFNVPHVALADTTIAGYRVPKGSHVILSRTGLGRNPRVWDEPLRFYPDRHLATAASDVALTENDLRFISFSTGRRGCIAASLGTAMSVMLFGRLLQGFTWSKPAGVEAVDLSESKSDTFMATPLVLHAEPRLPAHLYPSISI
The series is described as follows: Substrate binding spectra of P-450TYR expressed in E. coli. An excerpt: Cytochrome P-450TYR in the oxidized state has a strong absorption peak at 420 nm, representing the low spin state of the iron of the heme group. The binding of a ligand to the heme group shifts the absorption maximum by changing the spin state of the iron. Binding of tyrosine at the catalytic site of cytochrome P-450TYR induces a change of the spin state of the oxidized iron from low to high spin, and thereby changes the absorption maximum from 420 nm to 390 nm producing a type I spectrum (Jefcoate, Methods in Enzymology 52:258-279, 1978). The following experimental procedure is used to obtain the substrate binding spectrum: two identical cuvettes containing a buffered solution of the isolated cytochrome P-450 are prepared. The substrate of the enzyme is added to the sample cuvette whereas the same volume of buffer is added to the other cuvette. The difference spectrum is then recorded in an SLM-Aminco DW2c spectrophotometer. The absorption difference, A390-420, is proportional to the concentration of cytochrome P-450TYR with a bound substrate at its active site. If a saturating concentration of substrate is added to the sample cuvette, the absorption difference is proportional to the concentration of the substrate specific cytochrome P-450 in the cuvettes. The saturating concentration of the substrate is determined by titrating the cytochrome P-450 sample with increasing amounts of substrate and monitoring A390-420.
A modified cytocrome P-450TYR, in which the 35 N-terminal amino acids are replaced by the nine N-terminal amino acids from bovine 17α hydroxylase is introduced into the expression vector pSP19g10L which can be obtained from Dr. Henry Barnes (La Jolla, Calif.). This plasmid contains the lac Z promoter fused with the known short leader sequence (g10L) of gene 10 from bacteriophage T7 (Olin et al, 1988). A construct containing the N-terminal amino acids from bovine 17α hydroxylase and a truncated form of the P-450TYR gene is designed using PCR mutagenesis: Oligonucleotide TYROL 1d (5'-CGGGATCCATATGGCTCTGTTATTAGCAGTTTTTCTGTCGTACCTGGCCCG-3'; SEQ ID NO 23) containing a 5' mutant cDNA sequence as well as a BamHI and NdeI restriction site is used together with oligonucleotide TYROL 3 comprising the sequence surrounding the unique BamHI restriction site downstream of the ATG start codon of the cDNA coding for P-450TYR to amplify a modified N-terminal sequence of P-450TYR. The amplification product is cut with NdeI and BamHI restriction enzymes. To introduce a HindIII site immediately downstream of the stop codon of the P-450TYR gene, oligonucleotides TYROL 2 and TYROL 4 are used in a polymerase chain reaction to obtain a C-terminal fragment of the P-450TYR gene comprising a HindIII restriction site immediately downstream of the stop codon. The amplification product is cut with PstI and HindIII restriction enzymes. The complete expression plasmid is constructed by simultaneous ligation of the N-terminal NdeI/BamHI fragment, the BamHI/PstI fragment of the P-450TYR gene and the C-terminal PstI/HindIII fragment into NdeI/HindIII cleaved pSP19g10L vector DNA. The expression vector obtained is transformed into E. coli strain JM109. Transformed E. coli produce 300 nmol to 500 nmol cytochrome P-450TYR per liter cell culture upon growth at 28° C. in the presence of 1 mM isopropyl-β-D-thiogalactopyranoside and at 125 rpm. Expression levels as high as 900 nmol per liter, equivalent to 55 mg P-450TYR per liter, have been obtained. […]

For series [2], the target named is T2, E. coli-expressed cytochrome P-450TYR (Sorghum bicolor, UniProt Q43135).
T2 construct: in which the 35 N-terminal amino acids are replaced by the nine N-terminal amino acids from bovine 17α hydroxylase; nine N-terminal amino acids from bovine 17alpha-hydroxylase (replace the 35 N-terminal residues) (N); made in house; host or cells: E. coli JM109, vector pSP19g10L
T2 sequence (Q43135 other isoform, or with tags, fused parts or gaps): as the sequence (Q43135 other isoform, or with tags, fused parts or gaps) above
The series can be described thus: Reconstitution with E. coli-expressed cytochrome P-450TYR and sorghum NADPH cytochrome P450 reductase. The series is classed as biochemical. Conditions: phenylalanine as substrate. Here is the method: 10 μl of the lipid suspension is mixed in a glass vial with 50 μl of the cytochrome P-450TYR (0-1.5 pmol) solution. […] The reaction mixture is subsequently incubated for 1 hour at 30° C. At the end of the incubation period the reaction is stopped by transferring the glass vials onto ice. Radioactively labelled intermediates formed are extracted into 50 μl ehtyl acetate, applied to a silica coated TLC plate and developed using an ethyl acetate/toluene (1:5 v/v) mixture as mobile phase. The resultant product, p-hydroxyphenylacetaldehyde oxime is visualized by autoradiography of the TLC plate. Alternatively, the intermediates are analyzed by reverse-phase HPLC coupled to a Berthold radioactiviy monitor. […] Control samples may be made by omitting either cytochrome P-450 oxidoreductase or NADPH.
Reconstitution experiments with E. cole-expressed cytochrome P-450TYR and sorghum NADPH cytochorme P450 reductase in dilaurylpohsphatidylcholine micelles is performed as described in section 5.3. above.

The next series relates to glucosinolate production. The series is described as follows: Induction of glucosinolate production in Tropaeolum majus. The series is classed as in vivo. Conditions: 10 mM phenylalanine or 2% ethanol administered to the vermiculate, 24 hours, etiolated seedlings. As to the method: Seeds of Tropaeolum majus L. cv Empress of India (Dansk Havefroforsyning, Kolding, DK) are allowed to imbibe and germinate in complete darkness for one week at 25° C. In vivo biosynthesis experiments are performed wherein 1 μCi of the tracer ^14 C-labelled phenylalanine is administered to excised dark-grown seedlings for 24 hours followed by boiling of the plant material in 90% methanol and analysis of the extracts by HPLC as described by Lykkesfeldt and Moller, 1993. Prior to administration of the tracer to the excised seedling or leaf, the intact plant is subjected to a potential inducer for 24 hours.

For the compound `N[C@@H](Cc1ccccc1)C(=O)O` [phenylalanine], the “type of substrate binding spectrum” value in series [1] is listed as “type Ispectrum”. Besides, the “production of the corresponding oxime” value in series [2] is recorded as “do not result in the production of the corresponding oxime”. In the series with glucosinolate production, the “increase in glucosinolate production as compared to control experiments with water” value is listed as “threefold increase”.
